Patent US8748481B2, “Method for treating gastrointestinal disorder” (Sucampo AG, priority 2004, dated 2014)
Marks after values point to notes of the source that are not given here.

Legend:
Format in all cases: in vivo, human
[1] = test system: male and female patients with occasional constipation; assay: Weekly number of spontaneous bowel movements in male vs. female patients (Example 4); conditions: 48 μg/day, 4 weeks
Experimental: Multi-center, parallel-group, double-blind, placebo-controlled study was performed to compare the effect of Compound A on the weekly number of spontaneous bowel movements in male and female patients. Male and female patients with occasional constipation were received 48 μg (total daily dose) of Compound A (24 μg of Compound A b.i.d) for 4 weeks. The bowel movements in the patient were recorded during the treatment.

[2] = test system: subjects with occasional constipation; assay: MOS SF-36 quality of life assessment, 48-week study (Example 6)
Experimental: A 48-week multi-center study was performed to assess the safety and efficacy of 48 μg (total daily dose) of Compound A to subjects with occasional constipation. […] After 14-day drug-free washout period, they received orally 48 μg of Compound A (24 μg of […], b.i.d) daily for 48 weeks.
The subjects completed the Medical Outcomes Study (MOS) 36-item short form (SF-36), i.e., a conventionally used QOL assessment form, at enrollment (baseline) and end of treatment (Week 48). Components of the MOS SF-36 (Med Care 30(6),473-483, 1992) are outlined below: • Physical component: Physical Function; Role-Physical, Bodily Pain and General Health • Mental component: Vitality, Social Function, Role-Emotional and Mental Health
Each of the 8 components was scored within the guidelines of the publisher, including the publisher's guidelines for imputing missing variables. The change from baseline in each of the 8 component scores at the end of treatment (Week 48) were recorded and evaluated with paired t-tests.

[3] = test system: patients with chronic constipation; assay: Randomized withdrawal study, post-treatment response after 4 weeks of active treatment (Example 2)
Experimental: Multi-center, double-blind, randomized, placebo-controlled study was performed to assess post-treatment response, in a portion of the total population, after four (4) weeks of active treatment (48 μg Compound A total daily dose) and three (3) weeks randomized withdrawal period. […] After 14-day drug-free washout period, they received orally 48 μg (total daily dose) of Compound A for 28 days followed by either 0 or 48 μg (total daily dose) of Compound A for 21 days.
In this study, the following parameters were evaluated. • 1) Bowel movements per week • 2) Abdominal bloating • 3) Abdominal discomfort • 4) Severity of Constipation • 5) Straining • 6) Consistency
Each parameter (Abdominal bloating, Abdominal discomfort, Severity of Constipation or Straining) was evaluated on the scale of: 0 (absent), 1 (mild), 2 (moderate), 3 (severe) and 4 (very severe) in the patients. Consistency was evaluated on a scale of: 0 (very loose), 1 (loose), 2 (normal), 3 (hard) and 4 (very hard, little balls)

[4] = Serum electrolyte balance, open-label 24/48-week safety study (Example 1)
Experimental: Multi-center, open-label study was performed to evaluate the safety of 48 μg of Compound A (13,14-dihydro-15-keto-16,16-difluoro-PGE1) (24 μg of Compound A b.i.d) when administered daily for 24 weeks (6 months) or 48 weeks (12 months) to subjects with occasional constipation. […] After 14-day drug-free washout period, they received 48 μg of Compound A (24 μg of Compound A b.i.d) orally for 48 weeks.
Sodium, potassium, chloride, calcium, magnesium and phosphorus ion concentrations in serum of patients (n=299) were measured before, and at 6, 12, 18, 24, 30, 36, 48 and 50 weeks after the start of the Compound A treatment.
The laboratory standard values for the panel of electrolytes were taken from the normal reference ranges for the central laboratory.

[5] = 48 μg/day for 28 days, then 3 weeks withdrawal
[6] = Week 50 after start of 48-week treatment

## CCCCC(F)(F)C(=O)CCC1C(O)CC(=O)C1CCCCCCC(=O)O (centres unmarked) [Compound A, 13,14-dihydro-15-keto-16,16-difluoro-PGE1]
[1]
  Difference between the effects in male and female patients: no significant difference
[1]; both male and female patients
  Effect on weekly number of spontaneous bowel movements (FIG. 13): significantly effective
[2]; 48 μg/day, 48 weeks
  Effect on QOL of the patients (SF-36): improves the QOL
[2]; Baseline
  SF36 Bodily Pain score, Mean: 47.53
  SF36 General Health score, Mean: 51.52
  SF36 Mental Health score, Mean: 50.60
  SF36 Physical Function score, Mean: 49.04
  SF36 Role-Emotional score, Mean: 49.52
  SF36 Role-Physical score, Mean: 49.75
  SF36 Social Function score, Mean: 50.12
  SF36 Vitality score, Mean: 50.61
[2]; Week 48, 48 μg/day
  SF36 Bodily Pain score, Mean change from baseline: 3.38**
  SF36 General Health score, Mean change from baseline: 1.47*
  SF36 Mental Health score, Mean change from baseline: 1.97**
  SF36 Physical Function score, Mean change from baseline: 2.48**
  SF36 Role-Emotional score, Mean change from baseline: 1.22
  SF36 Role-Physical score, Mean change from baseline: 1.95**
  SF36 Social Function score, Mean change from baseline: 2.22**
  SF36 Vitality score, Mean change from baseline: 2.89**
[3]; 48 μg/day
  Quality of life of the patients: improved
[3]; [5]
  Efficacy after stopping the treatment (FIGS. 7 to 12): sustained
  Rebound effect after discontinuation of treatment (FIGS. 7 to 12): substantially no rebound effect
[4]; 48 μg/day, long-term administration up to 48 weeks
  Effect on sodium, potassium, chloride, calcium, magnesium and phosphorus ion concentration in serum: no effect
[4]; Week 0 (before treatment)
  Mean serum Calcium: 9.61 mg/dL
  Mean serum Chloride: 103.08 mmol/L
  Mean serum Magnesium: 2.18 mg/dL
  Mean serum Phosphorus: 3.65 mg/dL
  Mean serum Potassium: 4.28 mmol/L
  Mean serum Sodium: 141.00 mmol/L
[4]; Week 6, 48 μg/day oral
  Mean serum Calcium: 9.90 mg/dL
  Mean serum Chloride: 103.00 mmol/L
  Mean serum Magnesium: 2.23 mg/dL
  Mean serum Phosphorus: 3.20 mg/dL
  Mean serum Potassium: 4.28 mmol/L
  Mean serum Sodium: 142.25 mmol/L
[4]; Week 12, 48 μg/day oral
  Mean serum Calcium: 9.71 mg/dL
  Mean serum Chloride: 103.08 mmol/L
  Mean serum Magnesium: 2.24 mg/dL
  Mean serum Phosphorus: 3.57 mg/dL
  Mean serum Potassium: 4.20 mmol/L
  Mean serum Sodium: 139.78 mmol/L
[4]; Week 18, 48 μg/day oral
  Mean serum Calcium: 9.30 mg/dL
  Mean serum Chloride: 105.50 mmol/L
  Mean serum Magnesium: 2.35 mg/dL
  Mean serum Phosphorus: 3.55 mg/dL
  Mean serum Potassium: 4.40 mmol/L
  Mean serum Sodium: 141.50 mmol/L
[4]; Week 24, 48 μg/day oral
  Mean serum Calcium: 9.77 mg/dL
  Mean serum Chloride: 102.56 mmol/L
  Mean serum Magnesium: 2.21 mg/dL
  Mean serum Phosphorus: 3.61 mg/dL
  Mean serum Potassium: 4.19 mmol/L
  Mean serum Sodium: 139.21 mmol/L
[4]; Week 30, 48 μg/day oral
  Mean serum Calcium: 9.10 mg/dL
  Mean serum Chloride: 100.00 mmol/L
  Mean serum Magnesium: 2.30 mg/dL
  Mean serum Phosphorus: 2.50 mg/dL
  Mean serum Potassium: 4.30 mmol/L
  Mean serum Sodium: 136.00 mmol/L
[4]; Week 36, 48 μg/day oral
  Mean serum Calcium: 9.67 mg/dL
  Mean serum Chloride: 102.51 mmol/L
  Mean serum Magnesium: 2.19 mg/dL
  Mean serum Phosphorus: 3.58 mg/dL
  Mean serum Potassium: 4.18 mmol/L
  Mean serum Sodium: 138.94 mmol/L
[4]; Week 48, 48 μg/day oral
  Mean serum Calcium: 9.66 mg/dL
  Mean serum Chloride: 102.88 mmol/L
  Mean serum Magnesium: 2.14 mg/dL
  Mean serum Phosphorus: 3.50 mg/dL
  Mean serum Potassium: 4.20 mmol/L
  Mean serum Sodium: 139.59 mmol/L
[4]; [6]
  Mean serum Calcium: 9.47 mg/dL
  Mean serum Chloride: 102.67 mmol/L
  Mean serum Magnesium: 2.31 mg/dL
  Mean serum Phosphorus: 3.54 mg/dL
  Mean serum Potassium: 4.49 mmol/L
  Mean serum Sodium: 139.11 mmol/L
